Calls of active or inactive are those of the source.
What was measured:
Hexokinase-1 = molecular target: T1, Hexokinase-1 (Homo sapiens, UniProt P19367); test: hexokinase 1 activators, dose response, selectivity assay for HKDC1 activator project, biochemical (AID 504762); type: functional
T1 sequence (P19367 whole entry): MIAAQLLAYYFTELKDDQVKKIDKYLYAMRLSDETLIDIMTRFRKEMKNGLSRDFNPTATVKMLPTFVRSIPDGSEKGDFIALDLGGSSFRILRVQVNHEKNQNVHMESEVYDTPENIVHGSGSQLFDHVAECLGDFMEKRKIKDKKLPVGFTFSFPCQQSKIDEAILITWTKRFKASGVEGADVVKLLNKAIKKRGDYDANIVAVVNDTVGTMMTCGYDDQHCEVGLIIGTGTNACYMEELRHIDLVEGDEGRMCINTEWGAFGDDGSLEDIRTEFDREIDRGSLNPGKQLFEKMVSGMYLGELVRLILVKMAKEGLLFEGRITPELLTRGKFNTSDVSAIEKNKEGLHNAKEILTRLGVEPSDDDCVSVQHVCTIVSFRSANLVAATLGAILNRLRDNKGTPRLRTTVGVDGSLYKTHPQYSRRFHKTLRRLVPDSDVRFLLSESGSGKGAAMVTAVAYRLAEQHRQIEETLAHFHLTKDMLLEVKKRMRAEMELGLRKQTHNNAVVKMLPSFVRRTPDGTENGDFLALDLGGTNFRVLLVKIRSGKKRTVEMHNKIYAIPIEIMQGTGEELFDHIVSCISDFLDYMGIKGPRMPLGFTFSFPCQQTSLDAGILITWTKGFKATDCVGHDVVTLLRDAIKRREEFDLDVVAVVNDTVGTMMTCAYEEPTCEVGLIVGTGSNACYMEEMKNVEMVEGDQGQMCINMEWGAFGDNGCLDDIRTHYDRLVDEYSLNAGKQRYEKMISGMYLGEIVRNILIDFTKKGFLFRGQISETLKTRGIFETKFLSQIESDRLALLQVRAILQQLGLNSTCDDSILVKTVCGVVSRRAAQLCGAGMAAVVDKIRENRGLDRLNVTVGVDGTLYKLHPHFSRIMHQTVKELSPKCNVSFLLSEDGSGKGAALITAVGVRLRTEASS

Hexokinase HKDC1 = molecular target: T2, Hexokinase HKDC1 (Homo sapiens, UniProt Q2TB90); test: HKDC1 hexokinase activators, dose response, biochemical, W721R variant (AID 504730); type: functional
T2 sequence (Q2TB90 whole entry): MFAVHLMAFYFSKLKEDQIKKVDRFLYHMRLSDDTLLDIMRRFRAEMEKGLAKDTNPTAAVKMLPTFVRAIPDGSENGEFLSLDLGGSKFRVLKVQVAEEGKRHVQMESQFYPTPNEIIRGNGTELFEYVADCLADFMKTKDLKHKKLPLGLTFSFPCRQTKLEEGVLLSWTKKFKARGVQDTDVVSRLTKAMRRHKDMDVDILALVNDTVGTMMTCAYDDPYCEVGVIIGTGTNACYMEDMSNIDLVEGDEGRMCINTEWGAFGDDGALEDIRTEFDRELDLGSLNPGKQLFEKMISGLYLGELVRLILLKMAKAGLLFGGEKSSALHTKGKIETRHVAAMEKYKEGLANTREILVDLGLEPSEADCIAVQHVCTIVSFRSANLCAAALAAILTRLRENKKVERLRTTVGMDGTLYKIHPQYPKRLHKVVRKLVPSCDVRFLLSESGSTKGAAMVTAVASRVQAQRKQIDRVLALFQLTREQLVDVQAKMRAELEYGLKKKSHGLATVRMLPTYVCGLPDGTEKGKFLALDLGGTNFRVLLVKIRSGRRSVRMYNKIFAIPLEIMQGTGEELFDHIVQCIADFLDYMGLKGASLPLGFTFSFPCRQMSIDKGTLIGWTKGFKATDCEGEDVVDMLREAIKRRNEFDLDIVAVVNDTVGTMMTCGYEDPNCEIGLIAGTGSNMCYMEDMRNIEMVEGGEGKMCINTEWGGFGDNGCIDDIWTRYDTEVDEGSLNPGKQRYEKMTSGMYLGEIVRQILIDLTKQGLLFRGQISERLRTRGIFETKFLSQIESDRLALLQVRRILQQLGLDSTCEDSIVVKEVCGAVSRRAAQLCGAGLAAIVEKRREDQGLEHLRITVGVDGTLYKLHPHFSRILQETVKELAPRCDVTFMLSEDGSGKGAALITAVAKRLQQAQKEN

[1] = molecular target: T3, Short transient receptor potential channel 4 (Mus musculus, UniProt Q9QUQ5); test: mouse TRPC4 channel activators, dose response, cell-based, HEK293 TRPC4/mu-opioid, Fluo-4 calcium (AID 434937); type: functional
T3 sequence (Q9QUQ5 whole entry): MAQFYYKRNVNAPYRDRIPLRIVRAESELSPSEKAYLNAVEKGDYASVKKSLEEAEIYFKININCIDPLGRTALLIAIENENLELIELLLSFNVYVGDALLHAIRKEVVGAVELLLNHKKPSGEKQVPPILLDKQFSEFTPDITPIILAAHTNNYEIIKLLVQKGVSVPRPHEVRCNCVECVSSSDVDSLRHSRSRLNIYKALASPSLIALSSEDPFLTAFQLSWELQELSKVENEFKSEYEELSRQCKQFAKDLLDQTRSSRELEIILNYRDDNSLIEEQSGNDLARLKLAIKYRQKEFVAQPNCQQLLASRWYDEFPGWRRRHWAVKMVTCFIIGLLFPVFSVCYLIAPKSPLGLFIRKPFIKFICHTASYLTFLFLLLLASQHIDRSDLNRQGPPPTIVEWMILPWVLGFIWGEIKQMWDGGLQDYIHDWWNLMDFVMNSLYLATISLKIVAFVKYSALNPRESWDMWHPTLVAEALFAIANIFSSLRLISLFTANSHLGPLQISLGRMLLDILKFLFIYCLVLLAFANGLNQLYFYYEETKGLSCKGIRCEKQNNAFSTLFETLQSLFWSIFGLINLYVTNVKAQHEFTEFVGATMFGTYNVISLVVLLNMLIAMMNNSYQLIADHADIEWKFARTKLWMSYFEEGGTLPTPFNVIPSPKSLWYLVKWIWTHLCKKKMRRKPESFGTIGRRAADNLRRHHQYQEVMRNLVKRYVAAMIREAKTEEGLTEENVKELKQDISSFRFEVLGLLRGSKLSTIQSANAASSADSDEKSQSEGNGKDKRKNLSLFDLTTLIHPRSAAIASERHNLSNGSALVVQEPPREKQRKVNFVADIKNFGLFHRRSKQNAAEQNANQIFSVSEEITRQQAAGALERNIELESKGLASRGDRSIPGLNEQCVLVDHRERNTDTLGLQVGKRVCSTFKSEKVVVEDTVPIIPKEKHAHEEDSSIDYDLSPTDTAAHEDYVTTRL

[2] = molecular target: T4, Corticotropin-releasing factor receptor 2/Corticotropin-releasing factor-binding protein (Homo sapiens, UniProt P24387+Q13324); test: activators of CRF receptor 2 with binding protein – uHTS hits, confirmation (AID 602473); type: functional; details: read-out: EC50_Mean
T4 sequence (Q13324 whole entry): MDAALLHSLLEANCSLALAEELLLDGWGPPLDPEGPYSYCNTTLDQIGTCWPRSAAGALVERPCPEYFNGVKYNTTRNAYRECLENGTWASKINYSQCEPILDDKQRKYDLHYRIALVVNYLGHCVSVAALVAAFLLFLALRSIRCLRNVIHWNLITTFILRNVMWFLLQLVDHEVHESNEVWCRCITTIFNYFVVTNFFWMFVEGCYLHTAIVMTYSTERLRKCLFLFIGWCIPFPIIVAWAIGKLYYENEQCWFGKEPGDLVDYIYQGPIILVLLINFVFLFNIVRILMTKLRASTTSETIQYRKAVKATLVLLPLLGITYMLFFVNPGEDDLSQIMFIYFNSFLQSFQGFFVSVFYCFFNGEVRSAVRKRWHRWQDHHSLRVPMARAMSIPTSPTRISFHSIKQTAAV
T4 sequence (P24387 whole entry): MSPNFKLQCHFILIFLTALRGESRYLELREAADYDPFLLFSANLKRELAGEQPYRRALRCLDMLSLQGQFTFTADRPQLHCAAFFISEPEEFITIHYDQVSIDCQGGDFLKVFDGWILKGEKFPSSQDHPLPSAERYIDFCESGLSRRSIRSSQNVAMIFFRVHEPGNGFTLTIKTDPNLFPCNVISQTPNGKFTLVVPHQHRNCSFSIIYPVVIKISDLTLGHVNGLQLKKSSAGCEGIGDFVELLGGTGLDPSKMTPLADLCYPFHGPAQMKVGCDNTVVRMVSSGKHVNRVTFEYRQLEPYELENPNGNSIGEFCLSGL

INS1 = test: beta cell apoptosis inhibitors, cytokine rescue, dose response, luminescence, retest (AID 449756); type: functional, cell-based; details: Rattus norvegicus;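 further: cell death triggered by IL-1 beta plus TNF-alpha plus IFN-gamma mixture; protective hits raise ATP signal compared with cytokine alone wells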
Streptococcus = test: Group A Streptococcus viability loss, dose response, counter-screen for streptokinase expression inhibitor project, luminescence, BacTiterGlo (AID 1915); type: functional, organism-based;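 further: potency for reduction of bacterial viability or growth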
[3] = HepG2 cell cytotoxicity, dose response, cytotoxicity control for non-replicating M. tuberculosis project (AID 489018); type: functional; details: Mycobacterium tuberculosis
[4] = THP-1 cell cytotoxicity, dose response, cytotoxicity control for non-replicating M. tuberculosis project (AID 489025); type: functional
[5] = tested on: Streptococcus sp. 'group A'; test: growth inhibition of control SK(-) GAS strain, dose response, counter-screen for streptokinase expression inhibitor project, luminescence, kanamycin, BacTiterGlo, confirmation (AID 1900); type: functional, organism-based
[6] = Vero E6 cell cytotoxicity, dose response, cytotoxicity control for non-replicating M. tuberculosis project, secondary assay (AID 492998); type: functional, VeroE6; details: Vero C1008
[7] = Luminescence-based counterscreen assay for KLF5 inhibitors: dose response cell-based high throughput screening assay to identify cytotoxic compounds using the IEC-6 intestinal epithelial cell line. [Related pubchem assays: 1700 (Primary screen.), 1834 (Confirmation screen.), 1858 (Summary AID.), 1905 (Counterscreen.)]; type: functional
HEK293 = test: inhibitors of LMP1-driven NF-kB reporter, dose response, cell-based, HEK293, luciferase, cherry-pick (AID 588343); type: functional; details: Homo sapiens
cells [8] = type: functional, cell-based
[9] = Counterscreen for AddAB inhibitors: absorbance-based bacterial cell-based high throughput dose response assay for inhibitors of bacterial viability. [Related pubchem assays (depositor defined):AID435030, AID449728, AID449731, AID488942, AID488955, AID488956]; type: functional
[10] = cytotoxicity in HEK-293T cells, dose response, cytotoxicity control for TCR NF-kB inhibitor project, luminescence, T-cell screen hits (AID 489026); type: functional, cell-based;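 further: cells exposed to compound about 14 hours before the viability readout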
cells [11] = type: functional, cell-based; remark: listed apart in the source
Exodeoxyribonuclease V = Exodeoxyribonuclease V (Escherichia coli (strain K12), UniProt P04993+P07648+P08394); test: E. coli RecBCD inhibitors, dose response, counter-screen for AddAB inhibitor project, absorbance, V66 E. coli, mutant T4 phage (AID 492957); type: functional, cell-based, Escherichia coli str. K-12 substr. MG1655
[12] = molecular target: Intestinal-type alkaline phosphatase (Mus musculus, UniProt P24822); test: mouse intestinal alkaline phosphatase activators, dose response, biochemical, luminescence, uHTS hits (AID 488783); type: functional
[13] = molecular target: 72 kDa type IV collagenase (Homo sapiens, UniProt P08253); test: Dose Response validation of uHTS RPN11 inhibitor hits using a MMP-2 Fluorescence assay.; type: functional
[14] = molecular target: Intestinal-type alkaline phosphatase (Homo sapiens, UniProt P09923); test: activation of human intestinal alkaline phosphatase – biochemical, dose response (AID 488873); type: functional
Prothrombin = Prothrombin (Bos taurus, UniProt P00735); test: thrombin inhibition, dose response, biochemical, fluorescence polarization, uHTS hits (AID 602369); type: functional
[15] = molecular target: 26S proteasome non-ATPase regulatory subunit 14 (Homo sapiens, UniProt O00487); test: inhibition of proteasome subunit RPN11 – biochemical, fluorescence polarization, uHTS hits, confirmation (AID 602368); type: functional
[16] = molecular target: T5, Alkaline phosphatase, tissue-nonspecific isozyme (Homo sapiens, UniProt P05186); test: TNAP enzyme activators, dose response, selectivity assay for mouse IAP activator project, biochemical, TNAP isozyme, mouse IAP uHTS hits (AID 488880); type: functional
T5 sequence (P05186 whole entry): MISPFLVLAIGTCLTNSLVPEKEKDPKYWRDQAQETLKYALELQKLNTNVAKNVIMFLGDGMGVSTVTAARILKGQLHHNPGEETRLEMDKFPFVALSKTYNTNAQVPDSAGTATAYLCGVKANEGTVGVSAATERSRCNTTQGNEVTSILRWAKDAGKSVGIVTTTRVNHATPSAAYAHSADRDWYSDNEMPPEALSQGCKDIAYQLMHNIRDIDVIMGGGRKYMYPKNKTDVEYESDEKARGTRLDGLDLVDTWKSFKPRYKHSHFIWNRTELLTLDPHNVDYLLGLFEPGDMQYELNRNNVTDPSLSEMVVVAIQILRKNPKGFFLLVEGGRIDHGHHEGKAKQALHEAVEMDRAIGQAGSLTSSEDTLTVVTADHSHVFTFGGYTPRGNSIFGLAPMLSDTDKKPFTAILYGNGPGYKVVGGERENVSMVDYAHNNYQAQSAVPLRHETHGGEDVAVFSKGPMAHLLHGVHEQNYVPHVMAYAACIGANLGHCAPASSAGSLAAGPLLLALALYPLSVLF

26S proteasome non-ATPase regulatory subunit 14, sequence (O00487 whole entry): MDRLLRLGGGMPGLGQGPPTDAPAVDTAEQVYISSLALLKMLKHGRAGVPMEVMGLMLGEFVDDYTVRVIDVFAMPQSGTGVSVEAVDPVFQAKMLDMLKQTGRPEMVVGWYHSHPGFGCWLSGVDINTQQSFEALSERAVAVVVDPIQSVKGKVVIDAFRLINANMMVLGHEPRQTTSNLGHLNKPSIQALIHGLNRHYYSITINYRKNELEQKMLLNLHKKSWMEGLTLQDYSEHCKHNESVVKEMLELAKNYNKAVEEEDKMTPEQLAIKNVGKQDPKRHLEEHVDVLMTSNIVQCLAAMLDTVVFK
Intestinal-type alkaline phosphatase (Homo sapiens, UniProt P09923), sequence (P09923 whole entry): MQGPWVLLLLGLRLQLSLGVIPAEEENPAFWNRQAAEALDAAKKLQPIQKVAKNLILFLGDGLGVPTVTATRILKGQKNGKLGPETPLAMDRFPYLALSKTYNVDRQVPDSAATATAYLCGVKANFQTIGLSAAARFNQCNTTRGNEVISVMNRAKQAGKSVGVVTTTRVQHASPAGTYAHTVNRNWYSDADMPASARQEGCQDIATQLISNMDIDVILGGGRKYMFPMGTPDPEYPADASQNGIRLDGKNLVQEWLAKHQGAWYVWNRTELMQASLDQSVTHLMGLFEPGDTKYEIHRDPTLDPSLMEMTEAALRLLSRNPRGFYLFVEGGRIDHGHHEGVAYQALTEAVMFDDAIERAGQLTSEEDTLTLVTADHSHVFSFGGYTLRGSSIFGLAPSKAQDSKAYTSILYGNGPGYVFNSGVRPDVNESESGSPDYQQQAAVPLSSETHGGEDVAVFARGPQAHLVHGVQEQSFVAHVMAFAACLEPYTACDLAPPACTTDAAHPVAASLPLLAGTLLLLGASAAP
Intestinal-type alkaline phosphatase (Mus musculus, UniProt P24822), sequence (P24822 whole entry): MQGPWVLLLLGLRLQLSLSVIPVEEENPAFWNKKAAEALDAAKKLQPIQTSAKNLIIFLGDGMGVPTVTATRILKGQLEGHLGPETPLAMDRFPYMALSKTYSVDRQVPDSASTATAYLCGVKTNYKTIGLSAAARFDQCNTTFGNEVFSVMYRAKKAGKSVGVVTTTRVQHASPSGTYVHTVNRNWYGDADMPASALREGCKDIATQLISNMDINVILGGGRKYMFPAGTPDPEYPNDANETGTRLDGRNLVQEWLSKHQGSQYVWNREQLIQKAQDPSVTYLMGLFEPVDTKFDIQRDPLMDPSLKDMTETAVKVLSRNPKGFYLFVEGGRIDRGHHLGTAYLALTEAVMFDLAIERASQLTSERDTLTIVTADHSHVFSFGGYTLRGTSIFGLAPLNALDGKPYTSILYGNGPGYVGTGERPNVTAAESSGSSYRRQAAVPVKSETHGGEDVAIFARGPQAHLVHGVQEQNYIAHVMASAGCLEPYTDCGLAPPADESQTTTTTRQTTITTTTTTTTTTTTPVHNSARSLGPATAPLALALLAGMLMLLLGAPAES
Exodeoxyribonuclease V, sequence (P04993 whole entry): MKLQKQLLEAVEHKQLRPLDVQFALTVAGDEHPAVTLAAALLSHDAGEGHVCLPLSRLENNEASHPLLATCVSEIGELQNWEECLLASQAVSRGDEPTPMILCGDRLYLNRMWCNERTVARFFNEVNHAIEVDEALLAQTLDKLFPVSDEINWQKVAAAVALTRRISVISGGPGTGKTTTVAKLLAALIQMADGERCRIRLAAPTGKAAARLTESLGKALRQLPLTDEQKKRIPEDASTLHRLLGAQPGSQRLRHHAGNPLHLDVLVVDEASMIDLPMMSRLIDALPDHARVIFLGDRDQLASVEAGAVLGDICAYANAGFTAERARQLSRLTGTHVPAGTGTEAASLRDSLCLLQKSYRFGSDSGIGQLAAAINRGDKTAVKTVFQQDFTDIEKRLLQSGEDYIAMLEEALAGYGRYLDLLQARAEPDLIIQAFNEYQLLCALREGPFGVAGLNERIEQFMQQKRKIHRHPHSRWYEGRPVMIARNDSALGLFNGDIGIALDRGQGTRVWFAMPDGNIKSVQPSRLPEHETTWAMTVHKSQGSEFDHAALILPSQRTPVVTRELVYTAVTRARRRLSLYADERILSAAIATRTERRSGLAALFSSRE
Exodeoxyribonuclease V, sequence (P07648 whole entry): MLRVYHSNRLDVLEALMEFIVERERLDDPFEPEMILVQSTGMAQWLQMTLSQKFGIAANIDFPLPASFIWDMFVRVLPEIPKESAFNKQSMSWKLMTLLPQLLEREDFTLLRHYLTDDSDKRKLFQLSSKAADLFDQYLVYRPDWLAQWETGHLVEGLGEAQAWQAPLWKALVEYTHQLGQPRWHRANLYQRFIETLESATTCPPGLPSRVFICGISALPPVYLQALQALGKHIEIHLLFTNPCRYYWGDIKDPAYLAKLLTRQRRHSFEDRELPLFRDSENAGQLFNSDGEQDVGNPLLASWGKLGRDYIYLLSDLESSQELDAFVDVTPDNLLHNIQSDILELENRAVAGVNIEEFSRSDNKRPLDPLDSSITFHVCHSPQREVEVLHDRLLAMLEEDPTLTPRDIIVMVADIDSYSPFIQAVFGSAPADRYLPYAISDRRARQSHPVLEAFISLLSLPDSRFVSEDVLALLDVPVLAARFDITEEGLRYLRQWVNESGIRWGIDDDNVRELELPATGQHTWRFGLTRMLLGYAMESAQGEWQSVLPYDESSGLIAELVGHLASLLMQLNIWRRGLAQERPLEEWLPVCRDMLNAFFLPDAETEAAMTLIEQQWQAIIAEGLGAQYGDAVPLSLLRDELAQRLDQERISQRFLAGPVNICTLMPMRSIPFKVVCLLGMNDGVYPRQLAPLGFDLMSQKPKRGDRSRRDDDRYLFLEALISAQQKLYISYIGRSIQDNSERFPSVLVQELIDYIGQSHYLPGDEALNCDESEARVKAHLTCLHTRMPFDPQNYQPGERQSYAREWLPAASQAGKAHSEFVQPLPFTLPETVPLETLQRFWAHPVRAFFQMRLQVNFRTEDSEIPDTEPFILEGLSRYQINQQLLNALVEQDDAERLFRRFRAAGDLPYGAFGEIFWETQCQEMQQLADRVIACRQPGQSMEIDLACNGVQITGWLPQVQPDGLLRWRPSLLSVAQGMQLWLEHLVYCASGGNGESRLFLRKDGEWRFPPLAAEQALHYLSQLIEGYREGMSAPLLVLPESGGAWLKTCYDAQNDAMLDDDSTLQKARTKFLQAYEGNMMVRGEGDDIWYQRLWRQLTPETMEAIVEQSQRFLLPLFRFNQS
Exodeoxyribonuclease V, sequence (P08394 whole entry): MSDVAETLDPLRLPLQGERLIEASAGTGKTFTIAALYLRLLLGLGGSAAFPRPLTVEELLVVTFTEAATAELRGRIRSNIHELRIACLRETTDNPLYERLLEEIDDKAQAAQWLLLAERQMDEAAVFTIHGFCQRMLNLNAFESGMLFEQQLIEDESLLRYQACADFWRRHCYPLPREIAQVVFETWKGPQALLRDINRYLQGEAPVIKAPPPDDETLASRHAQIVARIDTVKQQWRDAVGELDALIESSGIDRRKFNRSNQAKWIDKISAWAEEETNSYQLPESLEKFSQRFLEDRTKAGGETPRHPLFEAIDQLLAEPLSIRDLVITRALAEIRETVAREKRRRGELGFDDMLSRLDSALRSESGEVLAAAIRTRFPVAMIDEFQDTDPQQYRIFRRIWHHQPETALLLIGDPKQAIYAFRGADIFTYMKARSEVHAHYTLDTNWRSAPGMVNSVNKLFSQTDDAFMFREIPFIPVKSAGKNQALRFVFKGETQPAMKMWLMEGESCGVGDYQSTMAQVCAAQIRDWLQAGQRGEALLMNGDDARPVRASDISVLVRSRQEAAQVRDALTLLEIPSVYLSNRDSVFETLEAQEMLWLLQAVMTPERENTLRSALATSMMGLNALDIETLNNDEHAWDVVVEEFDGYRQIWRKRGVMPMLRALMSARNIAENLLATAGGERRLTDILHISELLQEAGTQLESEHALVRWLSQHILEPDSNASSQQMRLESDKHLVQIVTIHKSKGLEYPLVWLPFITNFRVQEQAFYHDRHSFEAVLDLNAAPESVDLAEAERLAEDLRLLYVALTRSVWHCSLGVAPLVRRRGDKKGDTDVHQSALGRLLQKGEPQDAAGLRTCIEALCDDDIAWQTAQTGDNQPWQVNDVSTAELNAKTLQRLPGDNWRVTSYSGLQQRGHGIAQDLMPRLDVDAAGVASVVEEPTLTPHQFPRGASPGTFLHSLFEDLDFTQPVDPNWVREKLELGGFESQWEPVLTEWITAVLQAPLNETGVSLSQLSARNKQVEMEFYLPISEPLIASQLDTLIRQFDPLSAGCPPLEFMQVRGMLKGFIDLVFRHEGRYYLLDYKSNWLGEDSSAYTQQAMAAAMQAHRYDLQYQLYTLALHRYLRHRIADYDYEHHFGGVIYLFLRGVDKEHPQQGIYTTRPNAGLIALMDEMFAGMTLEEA
72 kDa type IV collagenase, sequence (P08253 whole entry): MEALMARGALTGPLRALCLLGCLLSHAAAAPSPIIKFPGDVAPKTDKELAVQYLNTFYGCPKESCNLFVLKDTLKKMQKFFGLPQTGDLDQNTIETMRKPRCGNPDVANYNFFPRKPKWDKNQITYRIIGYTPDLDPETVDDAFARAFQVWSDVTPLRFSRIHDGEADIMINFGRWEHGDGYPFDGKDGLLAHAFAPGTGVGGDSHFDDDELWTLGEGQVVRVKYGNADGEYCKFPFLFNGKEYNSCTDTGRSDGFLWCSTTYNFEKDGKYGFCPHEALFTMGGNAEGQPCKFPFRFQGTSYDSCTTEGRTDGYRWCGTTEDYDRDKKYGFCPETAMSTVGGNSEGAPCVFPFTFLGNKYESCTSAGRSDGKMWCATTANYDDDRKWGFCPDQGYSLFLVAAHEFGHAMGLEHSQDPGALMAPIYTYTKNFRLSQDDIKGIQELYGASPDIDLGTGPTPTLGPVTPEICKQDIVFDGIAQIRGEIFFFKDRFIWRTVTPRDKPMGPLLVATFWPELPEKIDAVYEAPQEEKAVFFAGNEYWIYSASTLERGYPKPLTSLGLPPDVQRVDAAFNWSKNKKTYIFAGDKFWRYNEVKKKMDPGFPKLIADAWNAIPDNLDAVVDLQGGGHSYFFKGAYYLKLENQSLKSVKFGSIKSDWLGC

## COC(=O)Cn1c2ccc(F)cc2c2nc(C)sc21
Hexokinase-1
  EC50: 8.1 µM (active)
Hexokinase HKDC1
  EC50: 8.74 µM (active)

## CCC1(c2ccc(F)cc2)NC(=O)N(CC(=O)c2cc(C)n(C3CC3)c2C)C1=O (stereo not drawn)
[1]
  EC50: 5.96 µM (active)
[2]
  EC50: 4.88 µM (active)

## O=C(N/N=C/c1c(O)ccc2ccccc12)c1ccc(Br)o1
INS1
  AC50: 0.779 µM (active)
Streptococcus
  EC50: 2.83 µM (active)
[3]
  CC50: 5.73 µM (active)
[4]
  CC50: 0.493 µM (active)
[5]
  EC50: 0.982 µM (active)
[6]
  CC50: 2.71 µM (active)
[7]
  IC50: 9.35 µM (active)
HEK293
  AC50: 6.22 µM (active)
Cells [8]
  EC50: 37.3 µM (active)
[9]
  IC50: > 119 µM (inactive)
[10]
  IC50: > 80 µM (inactive)
Cells [11]
  EC50: > 350 µM (not active)
Exodeoxyribonuclease V
  IC50: > 119 µM (inactive)

## CN(CCO)c1ccc(C=NNc2ccc([N+](=O)[O-])cc2S(=O)(=O)Nc2ccccc2C(=O)O)cc1
[12]
  EC50: 17.5 µM (active)
[13]
  IC50: > 100 µM (inactive)
[14]
  EC50: 26.6 µM (active)
Prothrombin
  IC50: 36.4 µM (active)
[15]
  IC50: 37 µM (active)
[16]
  EC50: 19.7 µM (active)

— ChEMBL document CHEMBL1201862, “PubChem BioAssay data set” (2004)
